Experimental data: ChEMBL document CHEMBL1201862, “PubChem BioAssay data set” (2004)
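How tested: cells in 96-well plates exposed to compound for 48 hours at five concentrations. GI50: concentration for 50% inhibition of growth.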 The source made the active and inactive calls. Rule as the data show it: active = GI50 up to about 1.1 µM and inactive = higher.

Experiments:
Assay in all cases: NCI tumour cell line growth inhibition, 48 h
[1] = tested on: EKVX
[2] = tested on: UACC-257
[3] = tested on: SF-295
[4] = tested on: HL-60
[5] = tested on: SK-MEL-28
[6] = tested on: IGROV-1
[7] = tested on: Malme-3M
[8] = tested on: MOLT-4
[9] = tested on: HOP-62
[10] = tested on: A498
[11] = tested on: RPMI-8226
[12] = tested on: HCT-116
[13] = tested on: HCC 2998
[14] = tested on: HT-29
[15] = tested on: SNB-19
[16] = tested on: SF-268
[17] = tested on: RXF 393
[18] = tested on: LOX IMVI

Measured: GI50

CC(=O)c1ccc(OCC(O)CO)cc1 (centres undefined)
inactive: [1] > 100 µM | [2] > 100 µM | [3] > 100 µM | [4] > 100 µM | [5] > 100 µM | [6] > 100 µM | [7] > 100 µM | [8] > 100 µM | [9] > 100 µM | [10] > 100 µM | [11] 62.7 µM | [12] 17.3 µM | [13] > 100 µM | [14] 61.4 µM | [15] > 100 µM | [16] > 100 µM

Cc1nc2c(n1-c1ccccc1)C(=O)c1ccccc1C2=O
inactive: [1] > 100 µM | [17] 75.2 µM | [2] 22.4 µM | [3] 38.4 µM | [4] 14.7 µM | [5] 96.2 µM | [7] 11.3 µM | [8] 30.3 µM | [9] > 100 µM | [10] > 100 µM | [12] 22.2 µM | [13] 39.6 µM | [14] 32.7 µM | [15] 50.2 µM | [16] 54.8 µM

COc1cc(C2C(Cl)C(=O)N2NC(=O)c2ccc(NC(C)=O)cc2)cc(Br)c1O (centres undefined)
inactive: [2] > 100 µM | [3] > 100 µM | [4] > 100 µM | [5] > 100 µM | [6] > 100 µM | [7] > 100 µM | [8] > 100 µM | [9] > 100 µM | [11] > 100 µM | [12] > 100 µM | [13] > 100 µM | [14] > 100 µM | [15] > 100 µM | [16] > 100 µM

CCOC(=O)C12CCC(=O)C=C1[C@@H](C)C(=O)CC2 (some centres undefined)
inactive: [1] > 100 µM | [17] > 100 µM | [2] > 100 µM | [3] > 100 µM | [4] > 100 µM | [5] > 100 µM | [6] > 100 µM | [7] > 100 µM | [9] > 100 µM | [11] > 100 µM | [12] > 100 µM | [13] > 100 µM | [14] > 100 µM | [18] > 100 µM | [16] > 100 µM

CCCCCCCCOCC(O)COC(=O)CCCCCCC (centres undefined)
inactive: [2] 51.3 µM | [3] > 100 µM | [4] 32.4 µM | [5] > 100 µM | [6] > 100 µM | [7] > 100 µM | [8] 32.7 µM | [9] > 100 µM | [10] > 100 µM | [11] 27.1 µM | [12] > 100 µM | [13] 30.7 µM | [14] > 100 µM | [15] > 100 µM | [18] > 100 µM | [16] 95.5 µM

CCOc1ccccc1NC(=O)CCc1nnc(S)[nH]1
inactive: [1] > 100 µM | [17] > 100 µM | [2] > 100 µM | [3] > 100 µM | [4] > 100 µM | [5] > 100 µM | [6] > 100 µM | [7] > 100 µM | [8] > 100 µM | [9] > 100 µM | [11] > 100 µM | [12] > 100 µM | [13] > 100 µM | [14] > 100 µM | [15] > 100 µM | [18] > 100 µM | [16] > 100 µM

O=C(Nc1cccc(O)c1)C(=O)C1C(=O)NC(=S)NC1=O
inactive: [1] > 100 µM | [17] > 100 µM | [2] > 100 µM | [3] > 100 µM | [4] > 100 µM | [5] > 100 µM | [6] > 100 µM | [7] > 100 µM | [8] > 100 µM | [10] > 100 µM | [11] > 100 µM | [12] > 100 µM | [13] > 100 µM | [14] > 100 µM | [15] > 100 µM | [18] > 100 µM | [16] > 100 µM

CCOC(=O)[N-]c1ccc(S(=O)(=O)[O+](C)CCl)cc1.CCOC(=O)[N-]c1ccc(S(=O)(=O)[O+](C)CCl)cc1.NC(=O)N=O.NC(=O)OCCCl
inactive: [2] > 100 µM | [3] > 100 µM | [4] > 100 µM | [5] > 100 µM | [6] > 100 µM | [7] > 100 µM | [8] > 100 µM | [9] > 100 µM | [10] > 100 µM | [12] > 100 µM | [13] > 100 µM | [14] > 100 µM | [15] > 100 µM | [18] > 100 µM | [16] > 100 µM

COC(=O)C(CC(=O)c1cc2c(cc1I)OCO2)Cc1cc(OC)c(OC)c(OC)c1I (centres undefined)
inactive: [1] > 100 µM | [17] 73.5 µM | [2] 16.4 µM | [3] 16.8 µM | [4] 16.7 µM | [5] > 100 µM | [6] > 100 µM | [7] > 100 µM | [8] 8.67 µM | [9] > 100 µM | [11] 8.13 µM | [12] 19.2 µM | [13] > 100 µM | [14] > 100 µM | [15] > 100 µM | [18] > 100 µM | [16] > 100 µM

Cc1ccc(C)c(NC(=O)C(=O)CC(=O)C2CCOC2=O)c1 (centres undefined)
inactive: [1] > 100 µM | [17] > 100 µM | [2] > 100 µM | [3] > 100 µM | [4] > 100 µM | [5] 28.5 µM | [6] > 100 µM | [7] > 100 µM | [9] > 100 µM | [10] > 100 µM | [11] > 100 µM | [12] > 100 µM | [14] > 100 µM | [15] > 100 µM | [18] > 100 µM | [16] > 100 µM

CC(=O)Nc1ccc(/C=C(\NC(=O)c2ccccc2)C(=O)NNS(=O)(=O)c2ccc(C)cc2)cc1
inactive: [1] > 100 µM | [17] > 100 µM | [2] > 100 µM | [3] > 100 µM | [4] > 100 µM | [5] > 100 µM | [6] > 100 µM | [7] > 100 µM | [8] > 100 µM | [9] > 100 µM | [11] 22.5 µM | [12] > 100 µM | [13] > 100 µM | [14] > 100 µM | [15] > 100 µM | [18] 16.4 µM | [16] 78.9 µM

NCc1ccccc1C1CSCSC1
inactive: [17] 39.8 µM | [2] > 100 µM | [3] > 100 µM | [4] > 100 µM | [5] > 100 µM | [7] > 100 µM | [8] > 100 µM | [12] > 100 µM | [14] > 100 µM | [18] > 100 µM | [16] > 100 µM

O=C1Sc2ccccc2C(=O)N2CCSC12 (centres undefined)
inactive: [17] > 100 µM | [2] > 100 µM | [3] > 100 µM | [4] 82.6 µM | [5] > 100 µM | [6] > 10 µM | [7] > 100 µM | [8] > 100 µM | [9] > 100 µM | [10] 31 µM | [11] > 100 µM | [12] > 100 µM | [13] > 100 µM | [15] > 100 µM | [18] > 100 µM

O=C1c2ccccc2C2(O)NC(=S)N(c3ccccc3)C12O (centres undefined)
inactive: [1] > 100 µM | [2] > 100 µM | [3] > 100 µM | [4] > 100 µM | [5] > 100 µM | [6] > 100 µM | [7] > 100 µM | [8] > 100 µM | [11] > 100 µM | [12] > 100 µM | [13] > 100 µM | [14] > 100 µM | [15] > 100 µM | [18] > 100 µM | [16] > 100 µM

CC(=O)c1ccc(NC(=O)/C(=N\NC(N)=O)C(C#N)CC(C)(C)C=O)cc1 (centres undefined)
inactive: [1] > 100 µM | [17] > 100 µM | [2] > 100 µM | [3] > 100 µM | [4] > 100 µM | [5] > 100 µM | [6] > 100 µM | [8] > 100 µM | [9] > 100 µM | [10] > 100 µM | [11] > 100 µM | [12] > 100 µM | [13] > 100 µM | [14] > 100 µM | [15] > 100 µM | [18] > 100 µM | [16] > 100 µM

Cc1cccc(C)c1NC(=O)CCc1nnc(S)[nH]1
inactive: [1] > 100 µM | [17] > 100 µM | [4] > 100 µM | [5] > 100 µM | [6] > 100 µM | [7] > 100 µM | [8] > 100 µM | [9] > 100 µM | [10] > 100 µM | [11] > 100 µM | [12] > 100 µM | [13] > 100 µM | [15] > 100 µM | [18] > 100 µM | [16] > 100 µM

COC(=O)CC(=O)OSc1ccccc1
inactive: [1] 17.6 µM | [17] 10.4 µM | [2] 25.4 µM | [3] 27.5 µM | [6] 7.71 µM | [7] 42.4 µM | [8] 4.63 µM | [9] 22.4 µM | [10] 17.3 µM | [11] 15.7 µM | [12] 12.9 µM | [13] 28.1 µM | [15] 41.7 µM | [18] 12.6 µM

Cc1nc(O)nc2c1C(NCCCN(C)C)c1cc(Cl)ccc1N2 (centres undefined)
inactive: [1] 16.3 µM | [17] 13.6 µM | [2] 13.2 µM | [3] 16.6 µM | [4] 14 µM | [5] 14 µM | [6] 16.2 µM | [7] 16.7 µM | [8] 19.8 µM | [9] 14.6 µM | [11] 17.3 µM | [12] 15 µM | [13] 16.3 µM | [14] 10.4 µM | [15] 16.4 µM | [18] 11.9 µM | [16] 16.2 µM
